Source: US11020395B2, “Cycloalkyl substituted triazole compounds as agonists of the APJ receptor” (AMGEN INC., priority 2016, dated 2021)

Biological target: human APJ receptor (Homo sapiens (Human), UniProt P35414)
Assay: [35S]GTPγS binding assay on membranes from CHO cells stably expressing human APJ receptor
Type: biochemical
Settings: [35S]GTPγS SPA, read-out: Activity hAPJ SPA EC50 IP
Summary of the method: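 Membranes from CHO cells stably expressing FLAG-tagged human APJ were incubated with [35S]GTPγS in buffer with optimized GDP, MgCl2 and NaCl, 90 min at RT. EC50 values derived by non-linear regression, averaged over several independent experiments.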

human APJ receptor, sequence (P35414 whole entry): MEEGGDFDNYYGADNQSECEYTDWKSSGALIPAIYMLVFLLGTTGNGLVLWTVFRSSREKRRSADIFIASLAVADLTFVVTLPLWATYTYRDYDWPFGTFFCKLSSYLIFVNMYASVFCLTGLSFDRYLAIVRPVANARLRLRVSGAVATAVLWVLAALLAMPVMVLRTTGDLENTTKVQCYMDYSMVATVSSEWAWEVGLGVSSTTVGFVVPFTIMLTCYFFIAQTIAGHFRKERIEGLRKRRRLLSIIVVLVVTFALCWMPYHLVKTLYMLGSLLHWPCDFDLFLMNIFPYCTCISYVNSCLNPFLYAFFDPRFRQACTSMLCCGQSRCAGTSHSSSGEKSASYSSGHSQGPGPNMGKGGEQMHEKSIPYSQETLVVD

Compound | EC50 [nM]
COc1ncnc(OC)c1-n1c(NS(=O)(=O)[C@@H](C)[C@H](OC)c2ncc(Cl)cn2)nnc1[C@H]1C[C@@H](F)C1 (single isomer, unassigned) [Example 163.0, (1R,2S)-1-(5-chloropyrimidin-2-yl)-N-(4-(4,6-dimethoxypyrimidin-5-yl)-5-((1s,3R)-3-fluorocyclobutyl)-4H-1,2,4-triazol-3-yl)-1-methoxypropane-2-sulfonamide or (1R,2S)-1-(5-chloropyrimidin-2-yl)-N-(4-(4,6-dimethoxypyrimidin-5-yl)-5-((1r,3S)-3-fluorocyclobutyl)-4H-1,2,4-triazol-3-yl)-1-methoxypropane-2-sulfonamide] | 46
COc1ncnc(OC)c1-n1c(NS(=O)(=O)[C@@H](C)[C@H](OC)c2ncc(Cl)cn2)nnc1[C@H]1C[C@@H](C)C1 [Example 186.0, (1R,2S)-1-(5-chloro-2-pyrimidinyl)-N-(4-(4,6-dimethoxy-5-pyrimidinyl)-5-(cis-3-methylcyclobutyl)-4H-1,2,4-triazol-3-yl)-1-methoxy-2-propanesulfonamide] | 0.89
(1R,2S)-1-(5-chloropyrimidin-2-yl)-N-(4-(4,6-dimethoxypyrimidin-5-yl)-5-((R)-spiro[2.2]pentan-1-yl)-4H-1,2,4-triazol-3-yl)-1-methoxypropane-2-sulfonamideor (1R,2S)-1-(5-chloropyrimidin-2-yl)-N-(4-(4,6-dimethoxypyrimidin-5-yl)-5-((S)-spiro[2.2]pentan-1-yl)-4H-1,2,4-triazol-3-yl)-1-methoxypropane-2-sulfonamide [Example 105.0] | 0.92
COc1ncnc(OC)c1-n1c(NS(=O)(=O)[C@@H](C)[C@H](C)c2ncc(C)cn2)nnc1C1CC1 [Example 3.0, (2S,3R)-N-(5-cyclopropyl-4-(4,6-dimethoxy-5-pyrimidinyl)-4H-1,2,4-triazol-3-yl)-3-(5-methyl-2-pyrimidinyl)-2-butanesulfonamide] | 56
COc1ncnc(OC)c1-n1c(NS(=O)(=O)[C@@H](C)[C@H](OC)c2ncc(C)cn2)nnc1C1CC2(CC2)C1 [Example 200.0] | 4.6
COc1cccc(OC)c1-n1c(NS(=O)(=O)[C@@H](C)[C@H](OC)c2ncc(Cl)cn2)nnc1[C@H]1C[C@@](C)(F)C1 (single isomer, unassigned) [Example 198.0, (1R,2S)-1-(5-chloropyrimidin-2-yl)-N-(4-(2,6-dimethoxyphenyl)-5-((1s,3R)-3-fluoro-3-methylcyclobutyl)-4H-1,2,4-triazol-3-yl)-1-methoxypropane-2-sulfonamide or ((1R,2S)-1-(5-chloropyrimidin-2-yl)-N-(4-(2,6-dimethoxyphenyl)-5-((1r,3S)-3-fluoro-3-methylcyclobutyl)-4H-1,2,4-triazol-3-yl)-1-methoxypropane-2-sulfonamide] | 3.7
COc1cccc(OC)c1-n1c(NS(=O)(=O)[C@@H](C)[C@H](OC)c2ncc(Cl)cn2)nnc1[C@H]1C[C@@](C)(F)C1 (single isomer, unassigned) [Example 195.0, (1R,2S)-1-(5-chloropyrimidin-2-yl)-N-(4-(2,6-dimethoxyphenyl)-5-((1s,3R)-3-fluoro-3-methylcyclobutyl)-4H-1,2,4-triazol-3-yl)-1-methoxypropane-2-sulfonamide or (1R,2S)-1-(5-chloropyrimidin-2-yl)-N-(4-(2,6-dimethoxyphenyl)-5-((1r,3S)-3-fluoro-3-methylcyclobutyl)-4H-1,2,4-triazol-3-yl)-1-methoxypropane-2-sulfonamide] | 2.6
COc1ncnc(OC)c1-n1c(NS(=O)(=O)[C@@H](C)[C@H](OC)c2ncc(Cl)cn2)nnc1[C@H]1C[C@]2(CC2(F)F)C1 (single isomer, unassigned) [Example 205.0, (1R,2S)-1-(5-chloropyrimidin-2-yl)-N-(5-((3R,5s)-1,1-difluorospiro[2.3]hexan-5-yl)-4-(4,6-dimethoxypyrimidin-5-yl)-4H-1,2,4-triazol-3-yl)-1-methoxypropane-2-sulfonamide or (1R,2S)-1-(5-chloropyrimidin-2-yl)-N-(5-((3S,5r)-1,1-difluorospiro[2.3]hexan-5-yl)-4-(4,6-dimethoxypyrimidin-5-yl)-4H-1,2,4-triazol-3-yl)-1-methoxypropane-2-sulfonamide] | 5.5
COc1ncnc(OC)c1-n1c(NS(=O)(=O)[C@@H](C)[C@@H](OC(C)C)c2ncc(Cl)cn2)nnc1C1CCC1 [Example 89.0, (1S,2S)-1-(5-chloro-2-pyrimidinyl)-N-(5-cyclobutyl-4-(4,6-dimethoxy-5-pyrimidinyl)-4H-1,2,4-triazol-3-yl)-1-(2-propanyloxy)-2-propanesulfonamide] | 0.74
COc1ncnc(OC)c1-n1c(NS(=O)(=O)[C@@H](C)[C@H](OC)c2ncc(Cl)cn2)nnc1[C@H]1C[C@@H](F)C1 (single isomer, unassigned) [Example 162.0, (1R,2S)-1-(5-chloropyrimidin-2-yl)-N-(4-(4,6-dimethoxypyrimidin-5-yl)-5-((1s,3R)-3-fluorocyclobutyl)-4H-1,2,4-triazol-3-yl)-1-methoxypropane-2-sulfonamide or (1R,2S)-1-(5-chloropyrimidin-2-yl)-N-(4-(4,6-dimethoxypyrimidin-5-yl)-5-((1r,3S)-3-fluorocyclobutyl)-4H-1,2,4-triazol-3-yl)-1-methoxypropane-2-sulfonamide] | 14
COc1cccc(OC)c1-n1c(NS(=O)(=O)[C@@H](C)[C@H](OC)c2ncc(C)cn2)nnc1[C@H]1C[C@H](Cl)C1 (single isomer, unassigned) [Example 192.0, (1R,2S)-N-(5-((1r,3S)-3-chlorocyclobutyl)-4-(2,6-dimethoxyphenyl)-4H-1,2,4-triazol-3-yl)-1-methoxy-1-(5-methylpyrimidin-2-yl)propane-2-sulfonamide or (1R,2S)-N-(5-((1s,3R)-3-chlorocyclobutyl)-4-(2,6-dimethoxyphenyl)-4H-1,2,4-triazol-3-yl)-1-methoxy-1-(5-methylpyrimidin-2-yl)propane-2-sulfonamide] | 2.9
COc1ncnc(OC)c1-n1c(NS(=O)(=O)[C@@H](C)[C@H](OC)c2ncc(Cl)cn2)nnc1[C@H]1C[C@@H](Cl)C1 (single isomer, unassigned) [Example 165.0, (1R,2S)-1-(5-chloropyrimidin-2-yl)-N-(4-(4,6-dimethoxypyrimidin-5-yl)-5-((1s,3R)-3-chlorocyclobutyl)-4H-1,2,4-triazol-3-yl)-1-methoxypropane-2-sulfonamide or (1R,2S)-1-(5-chloropyrimidin-2-yl)-N-(4-(4,6-dimethoxypyrimidin-5-yl)-5-((1r,3S)-3-chlorocyclobutyl)-4H-1,2,4-triazol-3-yl)-1-methoxypropane-2-sulfonamide] | 9.7
COc1cccc(OC)c1-n1c(NS(=O)(=O)[C@@H](C)[C@H](OC)c2ncc(Cl)cn2)nnc1[C@H]1CC[C@@H](C#N)CC1 (single isomer, unassigned) [Example 199.0, (1R,2S)-1-(5-chloropyrimidin-2-yl)-N-(5-((1r,4R)-4-cyanocyclohexyl)-4-(2,6-dimethoxyphenyl)-4H-1,2,4-triazol-3-yl)-1-methoxypropane-2-sulfonamide or (1R,2S)-1-(5-chloropyrimidin-2-yl)-N-(5-((1s,4R)-4-cyanocyclohexyl)-4-(2,6-dimethoxyphenyl)-4H-1,2,4-triazol-3-yl)-1-methoxypropane-2-sulfonamide] | 8.1
COc1ncnc(OC)c1-n1c(NS(=O)(=O)[C@@H](C)[C@H](OC)c2ccc(Cl)cn2)nnc1C1CCC1 (single isomer, unassigned) [Example 91.0, (1R,2S)-1-(5-chloropyridin-2-yl)-N-(5-cyclobutyl-4-(4,6-dimethoxypyrimidin-5-yl)-4H-1,2,4-triazol-3-yl)-1-methoxypropane-2-sulfonamide or (1S,2R)-1-(5-chloropyridin-2-yl)-N-(5-cyclobutyl-4-(4,6-dimethoxypyrimidin-5-yl)-4H-1,2,4-triazol-3-yl)-1-methoxypropane-2-sulfonamide] | 2.9
COc1ncnc(OC)c1-n1c(NS(=O)(=O)[C@@H](C)[C@H](OC)c2ncc(Cl)cn2)nnc1C1CC(OC)(OC)C1 [Example 238.0, (1R,25)-1-(5-chloro-2-pyrimidinyl)-N-(5-(3,3-dimethoxycyclobutyl)-4-(4,6-dimethoxy-5-pyrimidinyl)-4H-1,2,4-triazol-3-yl)-1-methoxy-2-propanesulfonamide] | 120
CO[C@H](c1ncc(Cl)cn1)[C@H](C)S(=O)(=O)Nc1nnc(C2CCC2)n1C(C)C [Example 128.0] | 330
(2S,3R)-3-(5-chloropyrimidin-2-yl)-N-(4-(2,6-dimethoxyphenyl)-5-((S)-spiro[2.2]pentan-1-yl)-4H-1,2,4-triazol-3-yl)butane-2-sulfonamide or (2S,3R)-3-(5-chloropyrimidin-2-yl)-N-(4-(2,6-dimethoxyphenyl)-5-((R)-spiro[2.2]pentan-1-yl)-4H-1,2,4-triazol-3-yl)butane-2-sulfonamide [Example 219.0] | 29
COc1ncnc(OC)c1-n1c(NS(=O)(=O)[C@@H](C)[C@@H](OC(C)C)c2ncc(Cl)cn2)nnc1[C@@H]1CC[C@@H]1C(F)F (single isomer, unassigned) [Example 167.0, (1S,2S)-1-(5-chloropyrimidin-2-yl)-N-(5-((1R,2S)-2-(difluoromethyl)cyclobutyl)-4-(4,6-dimethoxypyrimidin-5-yl)-4H-1,2,4-triazol-3-yl)-1-isopropoxypropane-2-sulfonamide or (1S,2S)-1-(5-chloropyrimidin-2-yl)-N-(5-((1S,2R)-2-(difluoromethyl)cyclobutyl)-4-(2,6-dimethoxypyrimidin-5-yl)-4H-1,2,4-triazol-3-yl)-1-isopropoxypropane-2-sulfonamide] | 13
